Data on one compound can be found in PMC7383614, “Computational Design of Enantiocomplementary Epoxide Hydrolases for Asymmetric Synthesis of Aliphatic and Aromatic Diols” (Chembiochem, 2020).

This assay concerns the target T1, LEH-P (thermostable limonene epoxide hydrolase) (Rhodococcus erythropolis, UniProt Q9ZAG3, T2A/S15P/A19K/E45K/T76K/T85V/N92K/Y96F, form not given).
T1 construct: gene limA; N-terminal hexa-His tag; expressed in E. coli; dimeric
Put plainly: initial velocities of diol formation, Michaelis-Menten fit. It counts as biochemical. The note with it: buffer and temperature of kinetics not given (activity assays: 50 mM HEPES pH 8, 30 °C); variant SS16 from earlier study, mutations not given; read-out: K M [mM] ^[b]. The text has this:
initial velocities of diol formation, Michaelis-Menten fit on LEH-P (thermostable limonene epoxide hydrolase)

T1 sequence (Q9ZAG3 whole entry T2A/S15P/A19K/E45K/T76K/T85V/N92K/Y96F, form open): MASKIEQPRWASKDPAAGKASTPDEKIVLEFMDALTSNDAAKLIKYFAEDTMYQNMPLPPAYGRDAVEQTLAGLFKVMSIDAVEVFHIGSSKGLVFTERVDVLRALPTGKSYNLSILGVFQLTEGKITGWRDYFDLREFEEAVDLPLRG

Turning to `C1CC2OC2C1` (stereo not shown) [1 a, cyclopentene oxide], the Km came out at 54 ± 4 mM.
